Source: patent US10369138B2, “Monobactam organic compounds for the treatment of bacterial infections” (Novartis AG, priority 2014, dated 2019)
In brackets after ≈: the same amount, converted by molar mass.

Assays:
[1] = test system: E. coli strain 25922; assay: MIC by broth microdilution, E. coli strain 25922; type: cell-based; details: Escherichia coli, 25922, E. coli strain 25922; read-out: Ec 25922 (MIC)
Summary of the method: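 CLSI broth microdilution in cation-adjusted Mueller-Hinton broth, inoculum about 5×10^5 CFU/mL, 10% DMSO from the diluted series, 20 h at 35-37° C. MIC is the lowest concentration preventing visible growth, read by eye and at 600 nm.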

[2] = test system: E. coli containing KPC-2; assay: MIC by broth microdilution, E. coli containing KPC-2 (Ec KPC2 Iso); type: cell-based; details: Escherichia coli, read-out: Ec KPC2 Iso (MIC), E. coli containing KPC-2 (carbapenemase from Klebsiella pneumoniae)
Summary of the method: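 Host E. coli BW25113 pspB carrying multicopy pBAD18-kan plasmid with constitutive TEM-promoter KPC-2 expression (periplasmic signal sequence); broth microdilution per CLSI in cation-adjusted Mueller-Hinton broth, inoculum ~5×10^5 CFU/mL, compounds twofold serially diluted from DMSO masters (10% DMSO in dilution series added).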

Cc1c[n+](C)ccc1-c1cn(C[C@@H]2[C@H](NC(=O)/C(=N\OC(C)(C)C(=O)O)c3csc(N)n3)C(=O)N2S(=O)(=O)O)nn1 [Example 49, (2R,3S)-3-((Z)-2-(2-aminothiazol-4-yl)-2-(((2-carboxypropan-2-yl)oxy)imino)acetamido)-2-((4-(1,3-dimethylpyridin-1-ium-4-yl)-1H-1,2,3-triazol-1-yl)methyl)-4-oxoazetidine-1-sulfonate]
MIC [1]: 2 µg/mL | MIC [2]: 16 µg/mL

CC(C)(O/N=C(\C(=O)N[C@@H]1C(=O)N(S(=O)(=O)O)[C@@H]1Cn1ccnn1)c1csc(N)n1)C(=O)O [Example 50, 2-(((Z)-(2-(((2R,3S)-2-((1H-1,2,3-triazol-1-yl)methyl)-4-oxo-1-sulfoazetidin-3-yl)amino)-1-(2-aminothiazol-4-yl)-2-oxoethylidene)amino)oxy)-2-methylpropanoic acid]
MIC [1]: 2 µg/mL (≈ 3.98 µM) | MIC [2]: 2.8 µg/mL (≈ 5.57 µM)

CC(C)(O/N=C(\C(=O)N[C@@H]1C(=O)N(S(=O)(=O)O)[C@@H]1Cn1cc(C(=O)O)nn1)c1csc(N)n1)C(=O)O [Example 51, 1-(((2R,3S)-3-((Z)-2-(2-aminothiazol-4-yl)-2-(((2-carboxypropan-2-yl)oxy)imino)acetamido)-4-oxo-1-sulfoazetidin-2-yl)methyl)-1H-1,2,3-triazole-4-carboxylic acid]
MIC [1]: > 64 µg/mL | MIC [2]: 16 µg/mL (≈ 29.3 µM)

CC(C)(O/N=C(\C(=O)N[C@@H]1C(=O)N(S(=O)(=O)O)[C@@H]1Cn1ncc(CN)n1)c1csc(N)n1)C(=O)O [Example 52, 2-(((Z)-(2-(((2R,3S)-2-((4-(aminomethyl)-2H-1,2,3-triazol-2-yl)methyl)-4-oxo-1-sulfoazetidin-3-yl)amino)-1-(2-aminothiazol-4-yl)-2-oxoethylidene)amino)oxy)-2-methylpropanoic acid]
MIC [1]: 0.5 µg/mL (≈ 0.941 µM) | MIC [2]: 1 µg/mL (≈ 1.88 µM)

CC(C)(O/N=C(\C(=O)N[C@@H]1C(=O)N(S(=O)(=O)O)[C@@H]1Cn1ncc(CNC(=N)N)n1)c1csc(N)n1)C(=O)O [Example 53, 2-(((Z)-(1-(2-aminothiazol-4-yl)-2-(((2R,3S)-2-((4-(guanidinomethyl)-2H-1,2,3-triazol-2-yl)methyl)-4-oxo-1-sulfoazetidin-3-yl)amino)-2-oxoethylidene)amino)oxy)-2-methylpropanoic acid]
MIC [1]: 1 µg/mL (≈ 1.74 µM) | MIC [2]: 1 µg/mL (≈ 1.74 µM)

CC(C)(O/N=C(\C(=O)N[C@@H]1C(=O)N(S(=O)(=O)O)[C@@H]1Cn1nccn1)c1csc(N)n1)C(=O)O [Example 54, 2-(((Z)-(2-(((2R,3S)-2-((2H-1,2,3-triazol-2-yl)methyl)-4-oxo-1-sulfoazetidin-3-yl)amino)-1-(2-aminothiazol-4-yl)-2-oxoethylidene)amino)oxy)-2-methylpropanoic acid]
MIC [1]: 2 µg/mL (≈ 3.98 µM) | MIC [2]: 1 µg/mL (≈ 1.99 µM)

Cc1cnn(C[C@@H]2[C@H](NC(=O)/C(=N\OC(C)(C)C(=O)O)c3csc(N)n3)C(=O)N2S(=O)(=O)O)n1 [Example 55, 2-(((Z)-(1-(2-aminothiazol-4-yl)-2-(((2R,3S)-2-((4-methyl-2H-1,2,3-triazol-2-yl)methyl)-4-oxo-1-sulfoazetidin-3-yl)amino)-2-oxoethylidene)amino)oxy)-2-methylpropanoic acid]
MIC [1]: 16 µg/mL (≈ 31 µM) | MIC [2]: 4 µg/mL (≈ 7.74 µM)

CC(C)(O/N=C(\C(=O)N[C@@H]1C(=O)N(S(=O)(=O)O)[C@@H]1Cn1cnnc1)c1csc(N)n1)C(=O)O [Example 56, 2-(((Z)-(2-(((2R,3S)-2-((4H-1,2,4-triazol-4-yl)methyl)-4-oxo-1-sulfoazetidin-3-yl)amino)-1-(2-aminothiazol-4-yl)-2-oxoethylidene)amino)oxy)-2-methylpropanoic acid]
MIC [1]: 4 µg/mL (≈ 7.96 µM) | MIC [2]: 16 µg/mL (≈ 31.8 µM)

CC(C)(O/N=C(\C(=O)N[C@@H]1C(=O)N(S(=O)(=O)O)[C@@H]1CN1C[C@@H](CN)OC1=O)c1csc(N)n1)C(=O)O [Example 57, 2-(((Z)-(2-(((2R,3S)-2-(((R)-5-(aminomethyl)-2-oxooxazolidin-3-yl)methyl)-4-oxo-1-sulfoazetidin-3-yl)amino)-1-(2-aminothiazol-4-yl)-2-oxoethylidene)amino)oxy)-2-methylpropanoic acid]
MIC [1]: 0.5 µg/mL (≈ 0.91 µM) | MIC [2]: 1 µg/mL (≈ 1.82 µM)

CC(C)(O/N=C(\C(=O)N[C@@H]1C(=O)N(S(=O)(=O)O)[C@@H]1CN1C[C@H](CN)OC1=O)c1csc(N)n1)C(=O)O [Example 58, 2-(((Z)-(2-(((2R,3S)-2-(((S)-5-(aminomethyl)-2-oxooxazolidin-3-yl)methyl)-4-oxo-1-sulfoazetidin-3-yl)amino)-1-(2-aminothiazol-4-yl)-2-oxoethylidene)amino)oxy)-2-methylpropanoic acid]
MIC [1]: 2 µg/mL (≈ 3.64 µM) | MIC [2]: 1 µg/mL (≈ 1.82 µM)

CC(C)(O/N=C(\C(=O)N[C@@H]1C(=O)N(S(=O)(=O)O)[C@@H]1CN1C[C@H](CNC(=N)N)OC1=O)c1csc(N)n1)C(=O)O [Example 59, 2-(((Z)-(1-(2-aminothiazol-4-yl)-2-(((2R,3S)-2-(((S)-5-(guanidinomethyl)-2-oxooxazolidin-3-yl)methyl)-4-oxo-1-sulfoazetidin-3-yl)amino)-2-oxoethylidene)amino)oxy)-2-methylpropanoic acid]
MIC [1]: 16 µg/mL (≈ 27 µM) | MIC [2]: 16 µg/mL (≈ 27 µM)

Cc1ncn(C[C@@H]2[C@H](NC(=O)/C(=N\OC(C)(C)C(=O)O)c3csc(N)n3)C(=O)N2S(=O)(=O)O)n1 [Example 60, 2-(((Z)-(1-(2-aminothiazol-4-yl)-2-(((2R,3S)-2-((3-methyl-1H-1,2,4-triazol-1-yl)methyl)-4-oxo-1-sulfoazetidin-3-yl)amino)-2-oxoethylidene)amino)oxy)-2-methylpropanoic acid]
MIC [1]: 8 µg/mL (≈ 15.5 µM) | MIC [2]: 8 µg/mL (≈ 15.5 µM)

Cc1ncnn1C[C@@H]1[C@H](NC(=O)/C(=N\OC(C)(C)C(=O)O)c2csc(N)n2)C(=O)N1S(=O)(=O)O [Example 61, 2-(((Z)-(1-(2-aminothiazol-4-yl)-2-(((2R,3S)-2-((5-methyl-1H-1,2,4-triazol-1-yl)methyl)-4-oxo-1-sulfoazetidin-3-yl)amino)-2-oxoethylidene)amino)oxy)-2-methylpropanoic acid]
MIC [1]: 8 µg/mL (≈ 15.5 µM) | MIC [2]: 2 µg/mL (≈ 3.87 µM)

CC(C)(O/N=C(\C(=O)N[C@@H]1C(=O)N(S(=O)(=O)O)[C@@H]1Cn1ncc(CNC=N)n1)c1csc(N)n1)C(=O)O [Example 62, 2-(((Z)-(1-(2-aminothiazol-4-yl)-2-(((2R,3S)-2-((4-(formimidamidomethyl)-2H-1,2,3-triazol-2-yl)methyl)-4-oxo-1-sulfoazetidin-3-yl)amino)-2-oxoethylidene)amino)oxy)-2-methylpropanoic acid]
MIC [1]: 0.5 µg/mL (≈ 0.895 µM) | MIC [2]: 2 µg/mL (≈ 3.58 µM)

CC(C)(O/N=C(\C(=O)N[C@@H]1C(=O)N(S(=O)(=O)O)[C@@H]1CN1C[C@@H](CO)OC1=O)c1csc(N)n1)C(=O)O [Example 63, 2-(((Z)-(1-(2-aminothiazol-4-yl)-2-(((2R,3S)-2-(((S)-5-(hydroxymethyl)-2-oxooxazolidin-3-yl)methyl)-4-oxo-1-sulfoazetidin-3-yl)amino)-2-oxoethylidene)amino)oxy)-2-methylpropanoic acid]
MIC [1]: 32 µg/mL (≈ 58.1 µM) | MIC [2]: 32 µg/mL (≈ 58.1 µM)

N=C(NC1CCNCC1)c1ccc(OC[C@H](O/N=C(\C(=O)N[C@@H]2C(=O)N(S(=O)(=O)O)[C@@H]2CN2CCOC2=O)c2csc(N)n2)C(=O)O)cc1 [Example 64, (S)-2-(((Z)-(1-(2-aminothiazol-4-yl)-2-oxo-2-(((3S,4R)-2-oxo-4-((2-oxooxazolidin-3-yl)methyl)-1-sulfoazetidin-3-yl)amino)ethylidene)amino)oxy)-3-(4-(N-(piperidin-4-yl)carbamimidoyl)phenoxy)propanoic acid]
MIC [1]: 0.5 µg/mL (≈ 0.691 µM) | MIC [2]: 0.25 µg/mL (≈ 0.345 µM)

CC(C)(O/N=C(\C(=O)N[C@@H]1C(=O)N(S(=O)(=O)O)[C@@H]1Cn1ncc(CNS(N)(=O)=O)n1)c1csc(N)n1)C(=O)O [Example 65, 2-(((Z)-(1-(2-aminothiazol-4-yl)-2-oxo-2-(((3S,4R)-2-oxo-4-((4-((sulfamoylamino)methyl)-2H-1,2,3-triazol-2-yl)methyl)-1-sulfoazetidin-3-yl)amino)ethylidene)amino)oxy)-2-methylpropanoic acid]
MIC [1]: 64 µg/mL (≈ 105 µM) | MIC [2]: 64 µg/mL (≈ 105 µM)

N=C(NCCN)c1ccc(OC[C@H](O/N=C(\C(=O)N[C@@H]2C(=O)N(S(=O)(=O)O)[C@@H]2Cn2ncc(CN)n2)c2csc(N)n2)C(=O)O)cc1 [Example 66, (S)-3-(4-(N-(2-aminoethyl)carbamimidoyl)phenoxy)-2-(((Z)-(2-(((2R,3S)-2-((4-(aminomethyl)-2H-1,2,3-triazol-2-yl)methyl)-4-oxo-1-sulfoazetidin-3-yl)amino)-1-(2-aminothiazol-4-yl)-2-oxoethylidene)amino)oxy)propanoic acid]
MIC [1]: 1 µg/mL (≈ 1.44 µM) | MIC [2]: 2 µg/mL (≈ 2.88 µM)

N=C(NCCN)c1ccc(OC[C@H](O/N=C(\C(=O)N[C@@H]2C(=O)N(S(=O)(=O)O)[C@@H]2Cn2cncn2)c2csc(N)n2)C(=O)O)cc1 [Example 67, (S)-2-(((Z)-(2-(((2R,3S)-2-((1H-1,2,4-triazol-1-yl)methyl)-4-oxo-1-sulfoazetidin-3-yl)amino)-1-(2-aminothiazol-4-yl)-2-oxoethylidene)amino)oxy)-3-(4-(N-(2-aminoethyl)carbamimidoyl)phenoxy)propanoic acid]
MIC [1]: 0.25 µg/mL (≈ 0.376 µM) | MIC [2]: 0.125 µg/mL (≈ 0.188 µM)

N=C(NC1CNC1)c1ccc(OC[C@H](O/N=C(\C(=O)N[C@@H]2C(=O)N(S(=O)(=O)O)[C@@H]2Cn2cncn2)c2csc(N)n2)C(=O)O)cc1 [Example 68, (S)-2-(((Z)-(2-(((2R,3S)-2-((1H-1,2,4-triazol-1-yl)methyl)-4-oxo-1-sulfoazetidin-3-yl)amino)-1-(2-aminothiazol-4-yl)-2-oxoethylidene)amino)oxy)-3-(4-(N-(azetidin-3-yl)carbamimidoyl)phenoxy)propanoic acid]
MIC [1]: 0.25 µg/mL (≈ 0.369 µM) | MIC [2]: 0.25 µg/mL (≈ 0.369 µM)
